According to PMC4519236 (Bioorganic & medicinal chemistry, 2013):
“Also recorded” adds a separate entry of the source.

Columns and labels:
α4β2* nAChR [1] = target: α4β2* nAChR (Rattus norvegicus, UniProt P09483+P12390); assay: Radioligand binding assay, α4β2* nAChR
α4β2* nAChR [2] = target: α4β2* nAChR (Homo sapiens, UniProt P17787+P43681); assay: Electrophysiology, α4β2* nAChR expressed in Xenopus oocytes; type: cell-based; details: 1 or 10 μM; co-applied at 1 μM with ACh; relative to ACh control
Sequence of α4β2* nAChR (Homo sapiens, UniProt P17787+P43681) (P43681 29-627 limits assumed): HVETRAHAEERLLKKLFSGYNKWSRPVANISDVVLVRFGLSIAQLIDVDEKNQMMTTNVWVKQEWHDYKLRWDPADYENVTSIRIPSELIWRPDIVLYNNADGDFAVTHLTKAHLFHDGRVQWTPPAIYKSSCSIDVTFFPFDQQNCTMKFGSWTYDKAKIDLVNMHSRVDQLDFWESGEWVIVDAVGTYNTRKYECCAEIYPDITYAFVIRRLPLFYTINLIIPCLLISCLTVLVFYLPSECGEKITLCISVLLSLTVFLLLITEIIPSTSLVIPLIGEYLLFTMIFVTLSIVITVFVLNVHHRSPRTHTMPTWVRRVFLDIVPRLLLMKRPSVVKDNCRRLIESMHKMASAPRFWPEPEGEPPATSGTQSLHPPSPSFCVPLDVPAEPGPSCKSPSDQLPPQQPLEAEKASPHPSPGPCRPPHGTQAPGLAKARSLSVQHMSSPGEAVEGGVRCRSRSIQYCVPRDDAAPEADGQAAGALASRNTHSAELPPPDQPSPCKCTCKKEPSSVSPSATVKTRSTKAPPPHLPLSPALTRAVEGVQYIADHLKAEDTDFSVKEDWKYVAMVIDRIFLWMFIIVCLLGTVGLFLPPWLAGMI
Sequence of α4β2* nAChR (Homo sapiens, UniProt P17787+P43681) (P17787 26-502): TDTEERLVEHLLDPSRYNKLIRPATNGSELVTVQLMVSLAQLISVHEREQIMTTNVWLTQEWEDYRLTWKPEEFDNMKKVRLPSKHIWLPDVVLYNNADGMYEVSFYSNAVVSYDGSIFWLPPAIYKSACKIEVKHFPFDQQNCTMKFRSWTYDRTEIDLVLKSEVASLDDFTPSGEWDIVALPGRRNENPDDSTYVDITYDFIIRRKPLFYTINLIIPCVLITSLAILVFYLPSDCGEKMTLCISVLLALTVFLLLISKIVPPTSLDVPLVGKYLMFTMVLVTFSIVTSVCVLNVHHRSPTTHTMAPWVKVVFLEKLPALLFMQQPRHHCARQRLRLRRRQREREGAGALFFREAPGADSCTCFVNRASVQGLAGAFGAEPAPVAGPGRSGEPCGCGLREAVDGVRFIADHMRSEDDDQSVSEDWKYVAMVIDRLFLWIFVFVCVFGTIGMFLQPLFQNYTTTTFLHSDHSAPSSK

α3β4* nAChR [3] = target: α3β4* nAChR (Homo sapiens, UniProt P30926+P32297); assay: Electrophysiology, α3β4* nAChR expressed in Xenopus oocytes; type: cell-based; details: 1 or 10 μM; co-applied at 1 μM with ACh; relative to ACh control
Sequence of α3β4* nAChR (Homo sapiens, UniProt P30926+P32297) (P32297 32-505): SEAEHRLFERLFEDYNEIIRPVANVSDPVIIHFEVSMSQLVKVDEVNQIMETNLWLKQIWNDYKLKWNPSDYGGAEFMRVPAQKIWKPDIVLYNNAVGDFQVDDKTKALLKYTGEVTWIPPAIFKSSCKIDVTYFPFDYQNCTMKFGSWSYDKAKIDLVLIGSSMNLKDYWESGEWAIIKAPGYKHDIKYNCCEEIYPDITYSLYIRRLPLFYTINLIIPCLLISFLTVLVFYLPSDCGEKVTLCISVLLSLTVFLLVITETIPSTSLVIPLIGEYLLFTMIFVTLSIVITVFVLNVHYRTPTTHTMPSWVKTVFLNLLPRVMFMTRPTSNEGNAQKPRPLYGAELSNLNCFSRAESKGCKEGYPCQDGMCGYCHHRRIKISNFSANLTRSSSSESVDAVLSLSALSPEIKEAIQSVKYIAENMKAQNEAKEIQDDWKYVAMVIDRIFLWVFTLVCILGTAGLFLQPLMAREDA
Sequence of α3β4* nAChR (Homo sapiens, UniProt P30926+P32297) (P30926 22-498): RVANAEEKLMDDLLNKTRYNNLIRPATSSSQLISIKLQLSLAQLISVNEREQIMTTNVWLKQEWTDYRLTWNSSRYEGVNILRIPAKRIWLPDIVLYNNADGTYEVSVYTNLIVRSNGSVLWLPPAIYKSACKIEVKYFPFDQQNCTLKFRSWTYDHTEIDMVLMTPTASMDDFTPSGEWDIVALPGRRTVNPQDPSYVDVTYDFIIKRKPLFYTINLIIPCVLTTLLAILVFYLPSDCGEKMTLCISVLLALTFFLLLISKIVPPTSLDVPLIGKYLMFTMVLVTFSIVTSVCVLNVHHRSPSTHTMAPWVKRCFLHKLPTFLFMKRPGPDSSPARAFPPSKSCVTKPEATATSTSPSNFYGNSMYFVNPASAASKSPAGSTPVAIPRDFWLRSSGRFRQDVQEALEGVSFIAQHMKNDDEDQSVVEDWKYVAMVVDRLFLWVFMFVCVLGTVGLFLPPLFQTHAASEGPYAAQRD

α3β4* nAChR [4] = assay: Radioligand binding assay, α3β4* nAChR
α7* nAChR = α7* nAChR (Rattus norvegicus, UniProt Q05941); assay: Radioligand binding assay, α7* nAChR
Sequence of α7* nAChR (Q05941 23-502): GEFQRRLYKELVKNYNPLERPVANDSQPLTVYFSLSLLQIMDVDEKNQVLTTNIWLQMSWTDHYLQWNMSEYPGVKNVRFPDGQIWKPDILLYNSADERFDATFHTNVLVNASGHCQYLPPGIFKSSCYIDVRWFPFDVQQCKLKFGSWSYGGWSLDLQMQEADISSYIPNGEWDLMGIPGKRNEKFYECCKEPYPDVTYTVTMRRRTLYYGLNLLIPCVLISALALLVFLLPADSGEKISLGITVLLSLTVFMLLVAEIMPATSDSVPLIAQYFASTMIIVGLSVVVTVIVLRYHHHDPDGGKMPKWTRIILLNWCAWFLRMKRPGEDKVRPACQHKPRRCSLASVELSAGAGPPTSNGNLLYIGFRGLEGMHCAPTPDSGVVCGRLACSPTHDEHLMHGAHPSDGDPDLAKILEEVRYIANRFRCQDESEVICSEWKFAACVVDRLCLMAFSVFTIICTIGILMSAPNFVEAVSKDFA

(α1)2β1γδ nAChR = (α1)2β1γδ nAChR (Tetronarce californica, UniProt P02710+P02714+P02718); assay: Radioligand binding assay, muscle type
mouse model = details: ref [26]; cited from earlier work
muscle subtype nAChR = muscle subtype nAChR (Homo sapiens, UniProt P02708+Q07001); assay: Electrophysiology, muscle subtype nAChR expressed in Xenopus oocytes; type: cell-based; details: 1 or 10 μM; co-applied at 1 μM with ACh; relative to ACh control
Sequence of muscle subtype nAChR (P02708 21-457): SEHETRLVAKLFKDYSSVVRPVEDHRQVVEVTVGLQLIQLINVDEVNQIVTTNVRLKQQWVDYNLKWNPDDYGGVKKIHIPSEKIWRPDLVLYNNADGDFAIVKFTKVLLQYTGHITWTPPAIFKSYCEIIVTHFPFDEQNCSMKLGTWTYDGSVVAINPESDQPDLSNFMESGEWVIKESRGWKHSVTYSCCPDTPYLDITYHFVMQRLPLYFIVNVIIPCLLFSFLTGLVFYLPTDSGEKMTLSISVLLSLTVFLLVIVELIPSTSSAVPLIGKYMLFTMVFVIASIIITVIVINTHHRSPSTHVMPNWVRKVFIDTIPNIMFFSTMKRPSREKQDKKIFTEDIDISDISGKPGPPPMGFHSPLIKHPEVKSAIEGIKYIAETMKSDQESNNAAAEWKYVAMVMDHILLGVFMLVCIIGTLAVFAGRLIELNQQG
Sequence of muscle subtype nAChR (P11230 24-501 partner): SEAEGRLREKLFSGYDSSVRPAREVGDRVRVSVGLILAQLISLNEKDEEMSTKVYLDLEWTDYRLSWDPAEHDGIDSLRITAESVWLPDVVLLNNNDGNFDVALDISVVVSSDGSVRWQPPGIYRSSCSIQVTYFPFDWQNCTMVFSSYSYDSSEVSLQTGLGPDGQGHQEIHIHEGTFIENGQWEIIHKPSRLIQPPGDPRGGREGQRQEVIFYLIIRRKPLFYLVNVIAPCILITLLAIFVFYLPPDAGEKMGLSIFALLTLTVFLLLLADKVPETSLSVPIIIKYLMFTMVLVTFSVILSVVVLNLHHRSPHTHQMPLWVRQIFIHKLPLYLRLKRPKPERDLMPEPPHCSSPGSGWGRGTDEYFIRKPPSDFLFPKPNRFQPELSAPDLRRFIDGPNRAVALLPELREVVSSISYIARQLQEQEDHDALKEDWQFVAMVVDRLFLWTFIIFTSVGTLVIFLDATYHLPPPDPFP
Sequence of muscle subtype nAChR (Q07001 22-517): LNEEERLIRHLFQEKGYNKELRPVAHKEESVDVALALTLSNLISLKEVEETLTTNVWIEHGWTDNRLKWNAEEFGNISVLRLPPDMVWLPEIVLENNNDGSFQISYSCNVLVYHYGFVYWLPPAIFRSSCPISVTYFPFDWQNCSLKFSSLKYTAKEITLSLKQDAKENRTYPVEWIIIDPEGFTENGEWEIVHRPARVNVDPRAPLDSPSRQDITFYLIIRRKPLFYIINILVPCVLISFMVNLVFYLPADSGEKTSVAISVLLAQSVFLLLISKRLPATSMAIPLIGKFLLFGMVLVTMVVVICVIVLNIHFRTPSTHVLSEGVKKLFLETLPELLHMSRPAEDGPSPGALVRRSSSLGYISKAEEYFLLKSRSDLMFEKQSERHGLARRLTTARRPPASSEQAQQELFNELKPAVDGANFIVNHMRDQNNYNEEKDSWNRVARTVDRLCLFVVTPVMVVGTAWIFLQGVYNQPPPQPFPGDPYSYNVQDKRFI

[5] = relative to vinyl spacer analog 26

Sequence of α4β2* nAChR (Rattus norvegicus, UniProt P09483+P12390) (P09483 31-630): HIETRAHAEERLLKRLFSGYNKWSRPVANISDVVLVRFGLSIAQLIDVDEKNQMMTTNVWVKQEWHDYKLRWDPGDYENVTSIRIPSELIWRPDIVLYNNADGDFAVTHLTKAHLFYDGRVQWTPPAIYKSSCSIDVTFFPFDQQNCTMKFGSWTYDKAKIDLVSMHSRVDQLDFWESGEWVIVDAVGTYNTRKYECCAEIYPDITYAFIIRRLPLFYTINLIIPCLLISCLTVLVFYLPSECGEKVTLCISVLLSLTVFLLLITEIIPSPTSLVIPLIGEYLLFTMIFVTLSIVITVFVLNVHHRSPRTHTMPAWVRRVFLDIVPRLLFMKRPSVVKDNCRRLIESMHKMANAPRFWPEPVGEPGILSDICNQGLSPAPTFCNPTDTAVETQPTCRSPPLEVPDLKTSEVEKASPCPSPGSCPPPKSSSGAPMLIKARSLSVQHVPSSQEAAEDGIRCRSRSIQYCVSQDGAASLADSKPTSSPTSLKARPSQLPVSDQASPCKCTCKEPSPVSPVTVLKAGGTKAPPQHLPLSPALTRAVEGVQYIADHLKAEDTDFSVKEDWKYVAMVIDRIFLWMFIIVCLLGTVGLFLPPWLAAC
Sequence of α4β2* nAChR (Rattus norvegicus, UniProt P09483+P12390) (P12390 25-500): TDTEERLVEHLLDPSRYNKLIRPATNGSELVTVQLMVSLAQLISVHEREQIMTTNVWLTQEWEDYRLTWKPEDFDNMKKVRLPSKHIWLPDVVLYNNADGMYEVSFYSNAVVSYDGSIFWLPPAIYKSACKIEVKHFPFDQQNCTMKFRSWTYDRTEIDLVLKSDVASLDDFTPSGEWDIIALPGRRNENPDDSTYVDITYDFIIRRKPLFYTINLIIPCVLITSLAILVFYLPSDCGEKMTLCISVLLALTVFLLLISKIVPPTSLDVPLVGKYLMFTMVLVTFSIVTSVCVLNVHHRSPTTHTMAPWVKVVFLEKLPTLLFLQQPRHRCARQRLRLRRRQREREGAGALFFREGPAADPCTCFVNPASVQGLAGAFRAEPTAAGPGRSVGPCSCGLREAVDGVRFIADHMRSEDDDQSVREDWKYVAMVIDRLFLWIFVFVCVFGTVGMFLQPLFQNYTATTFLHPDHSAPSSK

O=c1c(-c2ccccc2)ccc2n1C[C@@H]1CNC[C@H]2C1 [Compound 4, 9-phenyl-1,2,3,4,5,6-hexahydro-1,5-methano-pyridino[1,2-a]diazocin-8-one]
α4β2* affinity lower than cytisine 1 (α4β2* nAChR [1]; relative to cytisine 1): about 1000 times

O=C([C@@H]1C[C@H]1c1ccccc1)N1C[C@@H]2CNC[C@@H](C2)C1 [Compound 15, (1R,5S)-3,7-diazabicyclo[3.3.1]nonan-3-yl((1R,2R)-2-phenylcyclopropyl)methanone]
Ki (α4β2* nAChR [1]): ~1 nM | functional effect at α4β2* (α4β2* nAChR [2]): strongest antagonistic effects | functional effect at α3β4* (α3β4* nAChR [3]): agonist; also recorded: most potent agonist

O=C(/C=C/c1ccccc1)N1C[C@@H]2CNC[C@@H](C2)C1 [Compound 16, (E)-1-((1R,5S)-3,7-diazabicyclo[3.3.1]nonan-3-yl)-3-phenylprop-2-en-1-one]
affinity for α3β4* nAChR, in words (α3β4* nAChR [4]): lacked affinity | affinity for α7* nAChR, in words (α7* nAChR): lacked affinity | affinity for (α1)2β1γδ nAChR, in words ((α1)2β1γδ nAChR): lacked affinity

O=C(Cc1ccccc1)N1C[C@@H]2CNC[C@@H](C2)C1 [Compound 30, 1-((1R,5S)-3,7-diazabicyclo[3.3.1]nonan-3-yl)-2-phenylethanone]
increase of α4β2* affinity (α4β2* nAChR [1]; relative to compound 29): about 8 fold

O=C(CCc1ccccc1)N1C[C@@H]2CNC[C@@H](C2)C1 [Compound 32, 1-((1R,5S)-3,7-diazabicyclo[3.3.1]nonan-3-yl)-3-phenylpropan-1-one]
affinity for α7* nAChR, in words (α7* nAChR): no affinity

O=C(Cc1c(F)c(F)c(F)c(F)c1F)N1C[C@@H]2CNC[C@@H](C2)C1 [Compound 34, 1-((1R,5S)-3,7-diazabicyclo[3.3.1]nonan-3-yl)-2-(2,3,4,5,6-pentafluorophenyl)ethanone]
affinity for α4β2* / nAChRs tested, in words (α4β2* nAChR [1]): failed to interact

CS(=O)(=O)c1ccc(CC(=O)N2C[C@@H]3CNC[C@@H](C3)C2)cc1 [Compound 35, 1-((1R,5S)-3,7-diazabicyclo[3.3.1]nonan-3-yl)-2-(4-(methylsulfonyl)phenyl)ethanone]
functional effect at α4β2* (α4β2* nAChR [2]): strongest antagonistic effects | in vivo activity in a mouse model (mouse model): antidepressive effect

O=C(C#Cc1ccccc1)N1C[C@@H]2CNC[C@@H](C2)C1 [Compound 42]
higher affinity for α4β2* (α4β2* nAChR [1]; relative to analogs 32 and 16): 5 times

COc1ccc(C#CC(=O)N2C[C@@H]3CNC[C@@H](C3)C2)cc1OC [Compound 46, 1-((1R,5S)-3,7-diazabicyclo[3.3.1]nonan-3-yl)-3-(3,4-dimethoxyphenyl)prop-2-yn-1-one]
higher affinity for α4β2* (α4β2* nAChR [1]; [5]): ~10 fold | functional effect at α4β2* (α4β2* nAChR [2]): strongest antagonistic effects | functional effect at muscle subtype (muscle subtype nAChR): some antagonistic effect

COc1ccc(C#CC(=O)N2C[C@@H]3CNC[C@@H](C3)C2)cc1Cl [Compound 47, 1-((1R,5S)-3,7-diazabicyclo[3.3.1]nonan-3-yl)-3-(3-chloro-4-methoxyphenyl)prop-2-yn-1-one]
functional effect at α4β2* (α4β2* nAChR [2]): strongest antagonistic effects

O=C(C#Cc1ccc2c(c1)OCO2)N1C[C@@H]2CNC[C@@H](C2)C1 [Compound 50, 1-((1R,5S)-3,7-diazabicyclo[3.3.1]nonan-3-yl)-3-(benzo[d][1,3]dioxol-5-yl)prop-2-yn-1-one]
higher affinity for α4β2* (α4β2* nAChR [1]; [5]): ~10 fold | functional effect at α4β2* (α4β2* nAChR [2]): strongest antagonistic effects

O=C(c1ccc(-c2cccnc2)cc1)N1C[C@@H]2CNC[C@@H](C2)C1 [Compound 52, (1R,5S)-3,7-diazabicyclo[3.3.1]nonan-3-yl(4-(pyridin-3-yl)phenyl)methanone]
functional effect at α4β2* (α4β2* nAChR [2]): strongest antagonistic effects

O=C(c1ccc(-c2ccncc2)cc1)N1C[C@@H]2CNC[C@@H](C2)C1 [Compound 53, (1R,5S)-3,7-diazabicyclo[3.3.1]nonan-3-yl(4-(pyridin-4-yl)phenyl)methanone]
functional effect at α4β2* (α4β2* nAChR [2]): strongest antagonistic effects

O=C(c1ccc(-n2ccnc2)cc1)N1C[C@@H]2CNC[C@@H](C2)C1 [Compound 54, (4-(1H-imidazol-1-yl)phenyl)((1R,5S)-3,7-diazabicyclo[3.3.1]nonan-3-yl)methanone]
functional effect at α4β2* (α4β2* nAChR [2]): strongest antagonistic effects

O=C(c1csc(-c2ccncc2)n1)N1C[C@@H]2CNC[C@@H](C2)C1 [Compound 55, (1R,5S)-3,7-diazabicyclo[3.3.1]nonan-3-yl(2-(pyridine-4-yl)thiazol-4-yl)methanone]
affinity for α4β2* / nAChRs tested, in words (α4β2* nAChR [1]): did not show any affinity
